Measured values from US20110038791A1, “METHODS FOR INHIBITING SIX1 AND EYA PROTEINS” (priority 2008, published 2011).
Read-outs that look alike come from different tables or passages of the source.

Molecular target: T1, human Eya2 Eya Domain (ED) (Homo sapiens, UniProt O00167)
T1 construct: a highly conserved C-terminal Eya domain (ED); made in house; host or cells: E. coli
T1 sequence (O00167 253-538 limits assumed): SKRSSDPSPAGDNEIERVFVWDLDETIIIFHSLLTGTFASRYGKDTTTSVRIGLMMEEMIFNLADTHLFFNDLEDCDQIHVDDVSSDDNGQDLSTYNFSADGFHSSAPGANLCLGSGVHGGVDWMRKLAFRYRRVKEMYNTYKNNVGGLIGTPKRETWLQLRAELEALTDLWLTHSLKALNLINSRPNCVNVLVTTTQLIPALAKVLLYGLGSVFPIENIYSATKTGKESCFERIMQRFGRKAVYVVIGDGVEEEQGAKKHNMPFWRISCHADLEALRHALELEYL
Test: Inhibition of the phosphatase activity of Eya2 Eya Domain (ED) by known phosphatase inhibitors
Assay type: biochemical
Conditions: for IC50: human Eya2 ED, FIG. 20

[1] = at the concentrations that typically completely inhibit their cognate phosphatases

N[C@@H](Cc1ccccc1)C(=O)O [L-phenylalanine]
effect on ED phosphatase activity [1]: no effect

O=P(O)(O)OC(CO)CO [β-glycerophosphate]
IC50: 8.2 ± 2.1 mM

c1cnc2c(c1)ccc1cccnc12 [(1, 10)-phenanthroline]
effect on ED phosphatase activity [1]: no effect

[Na+].[Na+].[Na+].[O]=[V]([O-])([O-])[O-] [Na3VO4]
IC50: 1.8 ± 0.2 mM

cyclosporine A
effect on ED phosphatase activity: no effect

C=C1[C@@H](O)[C@@H]2O[C@]3(CC[C@H](/C=C/[C@@H](C)[C@@H]4CC(C)=C[C@@]5(O[C@H](C[C@@](C)(O)C(=O)O)CC[C@H]5O)O4)O3)CC[C@H]2O[C@@H]1[C@@H](O)C[C@H](C)[C@H]1O[C@@]2(CCCCO2)CC[C@H]1C [Okadaic acid]
effect on ED phosphatase activity: no effect

[Na+].[Na+].[O]=[Mo](=[O])([O-])[O-] [Na2MoO4]
IC50: 11.3 ± 1.6 mM
